Values quoted from earlier work in patent US7244749B2, “Compositions and methods for lowering plasma lipoprotein(a) and risk factors of cardiovascular diseases” (priority 2000, dated 2007).

System: plasma Lp(a)
Conditions: males with prostatic cancer

Estrogen
reduction of plasma Lp(a): 50%
